Reference: patent US8598145B2, “Mitochondrially delivered anti-cancer compounds” (priority 2008, dated 2013)

Assays:
adherent MCF7 cells [1] = assay: ROS production by flow cytometry, adherent cells (FIG. 8); format: cell-based, human; settings: 3 h; α-TOS 50 μM, MitoVES homologues 5 μM
Protocol: (§1) Adherent MCF7 cells and the corresponding mammosphere cells (MS) were cultured and assessed for morphological changes by microscopy (A) and for expression levels of markers as indicators of “sternness” by RT-PCR (B) and flow cytometry (C), including the expression of CD44 and CD24 (D). The adherent MCF7 cells (E) and the MS cells (F) were treated with 5 μM MitoVES, 50 μM α-TOS or 10 μM parthenolide and assessed for their sensitivity to drug induced cell death. […] Adherent MCF7 cells (I) and MS cells (J) were treated for 3 h with α-TOS (50 μM) or MitoVES homologues containing different lengths in the aliphatic side chain (5 μM each, either 11, 7 or 5 carbon chain in length) and the treated cells assessed for production of reactive oxygen species (ROS) by flow cytometry.
Cellular ROS were detected indirectly by flow cytometry and directly by electron paramagnetic resonance (EPR) spectroscopy, following treatment of cells with α-TOS as indicated in the Legend to Figures. […] For indirect evaluation, cells were treated with α-TOS and reacted with dihydrodichlorofluorescein diacetate (DCF; Molecular Probes) for 30 min, and scored by flow cytometry for cells with high fluorescence, which was evaluated on the bases on increase in mean fluorescence intensity. […]

adherent MCF7 cells [2] = assay: Drug induced cell death in adherent MCF7 cells (FIG. 8); format: cell-based, human; settings: 5 μM MitoVES, 50 μM α-TOS or 10 μM parthenolide
Protocol: as §1

Structure (SMILES) | ROS production in adherent MCF7 cells (adherent MCF7 cells [1]) | sensitivity of adherent MCF7 cells to drug induced cell death (adherent MCF7 cells [2])
Cc1c(C)c2c(c(C)c1OC(=O)CCC(=O)[O-])CCC(C)(CCCCCCCCCCC[P+](c1ccccc1)(c1ccccc1)c1ccccc1)O2 (stereo not shown) [MitoVE11S] | greater ROS accumulation | more so
Cc1c(C)c2c(c(C)c1OC(=O)CCC(=O)O)CC[C@@](C)(CCC[C@H](C)CCC[C@H](C)CCCC(C)C)O2 [α-TOS, α-tocopheryl succinate, reference compound] | significant production of ROS | sensitive to killing
